Reference: publication PMC12137728, “The hydroxamate based HDAC inhibitor WMJ-J-09 induces colorectal cancer cell death by targeting tubulin and downregulating survivin” (Scientific Reports, 2025)

Test system: tubulin in HCT116 cells
Experiment: Microtubule assembly / polymerized tubulin (immunofluorescence, western blot)
Format: cell-based, human
Settings: HCT116 cell lysate
Protocol: Following the indicated treatments, a lysis buffer containing NP-40 (0.5%), Tris (10 mM) (pH 7.0), PMSF (2 mM), NaCl (140 mM), leupeptin (0.2 mM), and pepstatin A (0.05 mM) was utilized to lyse cells to extract proteins. SDS-PAGE was utilized to separate protein samples in equal quantities, then transferred to a nitrocellulose membrane (Pall Corporation, Washington, NY, U.S.A.). Following transfer and 1-h blocking by incubation with TBST buffer containing 5% non-fat, the proteins immobilized on the membranes undergo primary antibody hybridization. Secondary antibodies conjugated with horseradish peroxidase were used to detect target proteins. Immunoreactivity was detected using the Western chemiluminescent HRP substrate kit, as per the manufacturer’s recommendations. We used a densitometer integrated into a scientific imaging system (Biospectrum AC System, UVP) to obtain quantitative data. We examined tubulin assembly as previously described [8]. […] Subsequently, the cells were washed with PBS twice and fixed with 4% paraformaldehyde at room temperature for 15 min. Cells were permeabilized by incubation with PBS containing Triton X-100 (0.1%) for 30 min. […] The distribution of tubulin was analyzed using a confocal microscope (Zeiss, LSM 410). Green fluorescence represented β-tubulin, while blue fluorescence (derived from DAPI) corresponds to nuclei.

For `CC(=O)O[C@H]1C(=O)[C@@]2(C)[C@H]([C@H](OC(=O)c3ccccc3)[C@]3(O)C[C@H](OC(=O)[C@H](O)[C@@H](NC(=O)c4ccccc4)c4ccccc4)C(C)=C1C3(C)C)[C@]1(OC(C)=O)CO[C@@H]1C[C@@H]2O` [Paclitaxel, paclitaxel], the polymerized tubulin fraction was “increased the polymeric tubulin”.
